Test results taken from PubChem BioAssay AID1996.
Converted amounts (≈) assume the structure as drawn.

Settings: buffer; pH 7.4; 200.0 µM

Point of comparison: CCc1noc(C)c1C(=O)Nc1ccc(F)c(F)c1, solubility kinetic 37.7 µg/mL (≈ 142 µM). Against it:
- O=Cc1c(NCCc2cccc(F)c2)c2ccccc2[nH]c1=O — 4.1-fold lower, 9.3 µg/mL (≈ 30 µM)
- COCCNC(=O)[C@@H]1CSC2c3ccccc3C(=O)N21 (some centres undefined) — higher, > 43.9 µg/mL
- O=S(=O)(c1ccc(N2CCCC2)nc1)N1CCCC1 — within 1.5-fold, 36.4 µg/mL (≈ 129 µM)
- Cc1c(C(=O)NC2CCCCC2)oc2ccccc12 — 7.1-fold lower, 5.3 µg/mL (≈ 20.6 µM)
- COc1cccc(OC)c1C(=O)NC(=O)Nc1c(F)cc(F)cc1F — 7-fold lower, 5.4 µg/mL (≈ 15.2 µM)
- Cc1ccsc1C(=O)N(C)C1CCS(=O)(=O)C1 (centres undefined) — higher, > 41 µg/mL
- O=C(CN1CCOCC1)NNC(=S)Nc1ccccc1 — higher, > 44.2 µg/mL
- Cn1cc(S(=O)(=O)NC2CCCC2)c(=O)n(C)c1=O — higher, > 43.1 µg/mL
- O=C(NC1CC1)C1CCN(C(=O)c2ccccc2Cl)CC1 — higher, > 46 µg/mL
- CSc1ncccc1C(=O)OCC(=O)Nc1nc(C)c(Cl)cc1Cl — 3.8-fold lower, 10 µg/mL (≈ 25.9 µM)
- COC(=O)CNC(=O)/C=C/c1cc(Br)ccc1OC — within 1.5-fold, 38.1 µg/mL (≈ 116 µM)
- Cl.O=C(NCCCn1ccnc1)c1ccc(F)cc1 — higher, > 42.6 µg/mL
- COC(=O)CNC(=O)c1cc(-c2ccncc2)nc2ccccc12 — higher, > 48.2 µg/mL
- O=C(CN1CCN(c2ccccn2)CC1)Nc1ccc(F)c(F)c1 — higher, > 49.9 µg/mL
- Cn1cncc1COC(=O)c1ccc(Cl)cc1 — not separable, > 37.6 µg/mL
- CSc1c(C#N)c(N)nc2sc(C(=O)c3ccccc3)c(N)c12 — 12-fold lower, 3.1 µg/mL (≈ 9.11 µM)
- CCOC(=O)C1C(c2ccc(Cl)cc2)NC(=S)NC1(O)C(F)(F)F (centres undefined) — within 1.5-fold, 37.8 µg/mL (≈ 98.7 µM)
- Cc1cccc(N(O)C(=O)Nc2cccc(Cl)c2)c1 — 3.7-fold lower, 10.2 µg/mL (≈ 36.9 µM)
- Cc1cccc(NC(=O)c2ccc(N3C(=O)C4CCCCC4C3=O)cc2)c1C (centres undefined) — 1.8-fold lower, 20.6 µg/mL (≈ 54.7 µM)
- CCN(CC)C(=O)C1CCCN(c2ccc([N+](=O)[O-])cc2)C1 (centres undefined) — higher, > 45.8 µg/mL
- Cc1cccc(CCNCc2cc3cc(C)cc(C)c3[nH]c2=O)c1 — within 1.5-fold, 42.5 µg/mL (≈ 133 µM)
- O=C(COC(=O)c1ccc(F)cc1F)Nc1ncccn1 — higher, > 44 µg/mL
- CCCCN(CC)C(=O)c1cc2c(=O)n3cccc(C)c3nc2s1 — within 1.5-fold, 44.5 µg/mL (≈ 130 µM)
- COc1cc(C)nc(NS(=O)(=O)c2ccccc2Cl)n1 — within 1.5-fold, 38.9 µg/mL (≈ 124 µM)
- COc1ccc(/C=N/OCC(=O)NCC(C)C)c(OC)c1 — higher, > 44.2 µg/mL
- CN(C(=O)CSc1ncn[nH]1)C1(C#N)CCCCC1 — higher, > 41.9 µg/mL
- Cc1ccc(S(=O)(=O)N2CCN(C(=O)c3ccco3)CC2)cc1C — within 1.5-fold, 46 µg/mL (≈ 132 µM)
- COCCN(C/C=C/c1ccccc1)C/C=C/c1ccccc1 — 3.7-fold lower, 10.1 µg/mL (≈ 32.9 µM)
- CCn1c(SCC(=O)N2CCCC2)nc2ccccc21 — higher, > 43.4 µg/mL
- O=C(Nc1cccc(Cl)c1)N1CCCCCC1 — 7.4-fold lower, 5.1 µg/mL (≈ 20.2 µM)
- COc1ccc(C(=O)OCC(=O)c2ccc3c(c2)NC(=O)CO3)cc1OC — 3.5-fold lower, 10.8 µg/mL (≈ 29.1 µM)
- CN(c1cccc(NC(=O)c2ccc(C(C)(C)C)cc2)c1)S(C)(=O)=O — lower, < 0.4 µg/mL
- CCN1CCN(C(=O)C23CCC(C)(C(=O)C2Br)C3(C)C)CC1 (centres undefined) — higher, > 55.7 µg/mL
- CCC/C(O)=C1\C(=O)CC(C)(C)CC1=Nc1cccc([N+](=O)[O-])c1 — within 1.5-fold, 42.6 µg/mL (≈ 129 µM)
- CC(=O)NS(=O)(=O)c1ccc(NC(=S)Nc2ccccc2)cc1 — higher, > 52.4 µg/mL
- COc1ccc(C(N)=O)c(OCC(=O)Nc2cc(C)on2)c1 — 3.4-fold lower, 11 µg/mL (≈ 36 µM)
- N#Cc1ccccc1NC(=O)COC(=O)CCc1ccccc1 — higher, > 46.3 µg/mL
- COc1ccccc1CN(C)C(=O)c1cnc(C)cn1 — higher, > 40.7 µg/mL
- CN(C)S(=O)(=O)N1CCN(CC(=O)Nc2ccc(F)cc2)CC1 — higher, > 51.7 µg/mL
- O=C(COC(=O)/C=C/c1cccc(F)c1)NC1CCCC1 — 4.8-fold lower, 7.8 µg/mL (≈ 26.8 µM)
- O=C(NC1CCCCC1)C1CCCN1C(=O)Nc1ccccc1 (centres undefined) — higher, > 47.3 µg/mL
- CCCN(Cc1cc2cc(OC)ccc2[nH]c1=O)C(=O)c1ccco1 — within 1.5-fold, 45.2 µg/mL (≈ 133 µM)
- COC(=O)c1sccc1NC(=O)Nc1ccc(C)c(C)c1 — 1.8-fold lower, 20.7 µg/mL (≈ 68 µM)
- CN1C(=O)c2ccc(NC(=O)C3CC3)cc2C1=O — within 1.5-fold, 33.4 µg/mL (≈ 137 µM)
- CC(=O)N1CCN(C(=O)COC(=O)/C=C/c2ccc(C(F)(F)F)cc2)CC1 — higher, > 57.7 µg/mL
- N#Cc1ccc(C(CC(=O)O)N2Cc3ccccc3C2=O)cc1 (centres undefined) — within 1.5-fold, 44 µg/mL (≈ 144 µM)
- Cc1ccnc(NC(=O)c2ccc([N+](=O)[O-])s2)c1 — 9.4-fold lower, 4 µg/mL (≈ 15.2 µM)
- O=C(NCc1cccc(Cl)c1)c1ccc2ccccc2n1 — 10-fold lower, 3.6 µg/mL (≈ 12.1 µM)
- Oc1nc(-c2ccc(Cl)cc2)n2ccncc12 — not separable, > 36.9 µg/mL
- CN(C)CCNC(=O)c1sc2cccc(F)c2c1Cl — within 1.5-fold, 40.1 µg/mL (≈ 133 µM)
- O=[N+]([O-])c1cc(Cl)ccc1Nc1ccccc1 — lower, < 0.3 µg/mL
- Cc1cc2nc(=O)c(/C=C3\C=Nc4ccccc43)c(N)n2o1 — lower, < 0.2 µg/mL
- CC(NC(=S)Nc1cccc(C(F)(F)F)c1)C(C)(C)C (centres undefined) — 8.2-fold lower, 4.6 µg/mL (≈ 15.1 µM)
- CCOc1ccc(NC(=O)N[C@@H](Cc2ccccc2)C(=O)O)cc1 — higher, > 49.3 µg/mL
- CSCCC(NC(=O)COc1ccccc1)C(=O)N1CCCC(C)C1 (centres undefined) — higher, > 54.7 µg/mL
- CC(C)C[C@H]1C(=O)N2CCCC2[C@]2(O)O[C@](NC(=O)[C@@H]3C=C4c5cccc6[nH]cc(c56)CC4N(C)C3)(C(C)C)C(=O)N12 (some centres undefined) — 1.6-fold lower, 24.1 µg/mL (≈ 41.9 µM)
- O=c1[nH]c(O)c(C=NC2CCCCC2)c(=O)[nH]1 — not separable, > 35.6 µg/mL
- CCc1nc(N2CCCCC2C(=O)O)c2oc3ccccc3c2n1 (centres undefined) — higher, > 48.8 µg/mL
